Here are results for two compounds from ChEMBL document CHEMBL5360672, “Identification of Novel Dual-Target Estrogen Receptor α Degraders with Tubulin Inhibitory Activity for the Treatment of Endocrine-Resistant Breast Cancer” (J Med Chem, 2023).

The test system of series [1] is MCF7. Description: Antitumor activity against human MCF7 cells xenografted in Balb/c nude mouse assessed as tumor growth inhibition at 4 mg/kg, ip administered every other day for 20 days relative to control. The class given is functional. As to conditions: MCF7, 480 h, time 20 day, read-out: TGI.
Series [2] is described as follows: Antitumor activity against human Tamoxifen-resistant LCC2 cells xenografted in Balb/c nude mouse assessed as tumor growth inhibition at 4 mg/kg, ip administered every other day for 20 days relative to control. The series is classed as functional. The settings on record: Tamoxifen-resistant LCC2 cell, 480 h, time 20 day, read-out: TGI.
For series [3], the system named is LCC2. The experiment in a line: Induction of cell cycle arrest in human LCC2 cells assessed as accumulation of cells at G2/M phase incubated for 48 hrs by flow cytometry analysis. The series is classed as functional, cell-based. As to conditions: dose 6-24 µM.
The nature of series [4]: Antiproliferative activity against human Tamoxifen-resistant LCC2 cells assessed as inhibition of cell proliferation incubated for 72 hrs by CCK8 assay. The series is classed as functional, cell-based.
The target of series [5] is T1, Tubulin (Homo sapiens) (UniProt P68371+Q9H4B7+P0DPH7+P68366+Q13509+Q71U36+P04350+Q3ZCM7+P07437+P68363+Q9BQE3+Q6PEY2+Q13885+Q9BVA1+Q9BUF5). The experiment in a line: Disruption of microtubule network in human LCC2 cells assessed as ruptured microtubule network at 4 uM incubated for 48 hrs by DAPI staining based confocal laser scanning microscopic analysis. The series is classed as cell-based.

Series [6] addresses T2, Estrogen receptor (Homo sapiens, UniProt P03372).
T2 sequence (P03372 whole entry): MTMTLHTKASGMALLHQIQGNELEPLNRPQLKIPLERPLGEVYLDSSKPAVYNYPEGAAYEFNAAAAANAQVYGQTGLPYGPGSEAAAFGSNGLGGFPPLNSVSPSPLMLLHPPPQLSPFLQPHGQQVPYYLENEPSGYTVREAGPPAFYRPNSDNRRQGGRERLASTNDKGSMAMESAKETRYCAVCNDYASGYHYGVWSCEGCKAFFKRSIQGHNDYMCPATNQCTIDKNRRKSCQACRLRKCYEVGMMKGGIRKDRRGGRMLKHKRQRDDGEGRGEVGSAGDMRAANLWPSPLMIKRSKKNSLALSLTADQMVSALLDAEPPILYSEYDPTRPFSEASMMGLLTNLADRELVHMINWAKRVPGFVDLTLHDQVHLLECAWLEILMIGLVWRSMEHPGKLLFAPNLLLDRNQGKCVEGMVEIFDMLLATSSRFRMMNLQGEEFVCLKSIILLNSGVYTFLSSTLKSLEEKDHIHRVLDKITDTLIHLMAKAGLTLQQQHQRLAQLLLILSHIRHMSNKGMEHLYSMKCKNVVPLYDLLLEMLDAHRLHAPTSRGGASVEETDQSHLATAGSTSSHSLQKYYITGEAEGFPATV
Description: Antagonist activity at ERalpha (unknown origin) expressed in HEK293T cells co-expressing ERbeta and ERE-luciferase reporter assessed as reduction in relative light unit incubated for 24 hrs by dual-luciferase reporter assay. The series is classed as cell-based.

The target in series [7] is T1, Tubulin (Homo sapiens). The experiment in a line: Disruption of microtubule network in human MCF7 cells assessed as chaotic microtubule network at 2 uM incubated for 48 hrs by DAPI staining based confocal laser scanning microscopic analysis. The class given is cell-based.
Series [8] has as its target T1, Tubulin (Homo sapiens). Description: Disruption of microtubule network in human MCF7 cells assessed as ruptured microtubule network at 2 uM incubated for 48 hrs by DAPI staining based confocal laser scanning microscopic analysis. The class given is cell-based.
For series [9], the system named is T47D. Description: Antiproliferative activity against human T47D cells harboring ERalpha Y537S mutant assessed as inhibition of cell proliferation incubated for 72 hrs by CCK8 assay. The series is classed as functional, cell-based.
The target of series [10] is T1, Tubulin (Homo sapiens). The experiment in a line: Disruption of microtubule network in human LCC2 cells assessed as chaotic microtubule network at 4 uM incubated for 48 hrs by DAPI staining based confocal laser scanning microscopic analysis. The class given is cell-based.
Series [11] is described as follows: Selectivity index, ratio of IC50 for cytotoxicity against human MCF-10A cells to IC50 for antiproliferative activity against human MCF7 cells. The series is classed as toxicity, cell-based. The settings on record: MCF-10A cells and MCF7 cells, read-out: Ratio IC50.
Series [12] deals with T47D. The experiment in a line: Antiproliferative activity against ERalpha positive human T47D cells assessed as inhibition of cell proliferation incubated for 72 hrs by CCK8 assay. The series is classed as functional, cell-based.
The species entered for series [13] is Homo sapiens. The experiment in a line: Selectivity ratio of relative binding affinity for human ERalpha to relative binding affinity to human ERbeta.
The nature of series [14]: Cytotoxicity against human MCF-10A cells assessed as inhibition of cell proliferation incubated for 72 hrs by CCK8 assay. The series is classed as toxicity, cell-based.
In series [15] the target is T3, Estrogen receptor (Homo sapiens) (UniProt P03372).
T3 sequence (whole entry): T2 sequence (P03372 whole entry)
The experiment in a line: Binding affinity to human ERalpha assessed as relative binding affinity incubated under vibration for 1 min followed by 2 hrs incubation under dark condition by fluorescence polarization assay relative to estradiol. The settings on record: time 121.0 min.

The target of series [16] is T1, Tubulin (Homo sapiens). Description: Inhibition of tubulin polymerization (unknown origin) at 30 uM incubated for 60 mins by microplate reader analysis. The class given is protein-complex assay.
In series [17] the test system is MDA-MB-231. Description: Antiproliferative activity against ERalpha negative human MDA-MB-231 cells assessed as inhibition of cell proliferation incubated for 72 hrs by CCK8 assay. The series is classed as functional, cell-based. As to conditions: MDA-MB-231, 72 h.
Series [18] has as its system T47D. Description: Antiproliferative activity against human T47D cells harboring ERalpha D538G mutant assessed as inhibition of cell proliferation incubated for 72 hrs by CCK8 assay. The series is classed as functional, cell-based.
The subject of series [19] is MCF7. The experiment in a line: Antiproliferative activity against ERalpha positive human MCF7 cells assessed as inhibition of cell proliferation incubated for 72 hrs by CCK8 assay. The class given is functional, cell-based. The settings on record: MCF7, 72 h.
Series [20] relates to MCF7. The experiment in a line: Induction of cell cycle arrest in human MCF7 cells assessed as increase in G2/M phase cells at 0 to 8 uM incubated for 48 hrs by flow cytometry analysis (reference value: 17.45%). The class given is functional. The settings on record: dose 0-8 µM.
Series [21] has as its target Estrogen receptor beta (Homo sapiens) (UniProt Q92731). The experiment in a line: Binding affinity to human ERbeta assessed as relative binding affinity incubated under vibration for 1 min followed by 2 hrs incubation under dark condition by fluorescence polarization assay relative to estradiol. As to conditions: time 121.0 min.

pIC50: −log10 of the molar value. Active and inactive are the calls of the source. The rule behind the calls is not given here.

Estrogen receptor beta (Homo sapiens), sequence (Q92731 whole entry): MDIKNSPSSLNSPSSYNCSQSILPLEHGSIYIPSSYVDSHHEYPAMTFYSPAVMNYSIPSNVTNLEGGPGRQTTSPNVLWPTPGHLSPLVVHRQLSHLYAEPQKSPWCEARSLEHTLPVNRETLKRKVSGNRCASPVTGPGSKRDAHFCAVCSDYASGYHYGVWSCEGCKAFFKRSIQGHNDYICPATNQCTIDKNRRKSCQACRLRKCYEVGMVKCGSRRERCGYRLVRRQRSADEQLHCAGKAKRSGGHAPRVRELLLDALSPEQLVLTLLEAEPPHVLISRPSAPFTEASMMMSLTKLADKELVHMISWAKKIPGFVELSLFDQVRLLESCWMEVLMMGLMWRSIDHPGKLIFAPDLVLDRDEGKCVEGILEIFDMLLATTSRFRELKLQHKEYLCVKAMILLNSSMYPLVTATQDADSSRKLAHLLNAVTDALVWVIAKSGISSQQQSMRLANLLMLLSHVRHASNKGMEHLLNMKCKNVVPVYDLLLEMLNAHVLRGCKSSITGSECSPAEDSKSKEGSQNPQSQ

Turning to `CC/C(=C(\c1ccccc1)c1ccc(OCCN(C)C)cc1)c1ccccc1` [TAMOXIFEN], the inhibition in vivo at 4 mg/kg amounted to 71.4% in series [1] and 6.25% in [2].
In the case of `N#C[Se]CCCCCC(=O)Nc1ccc(C2=C(c3ccc(O)cc3)C3CC(S(=O)(=O)Oc4ccccc4F)C2O3)cc1` (stereo unspecified), the Activity result was “Dose-Dependent Effect” in series [3] and 27.55% in series [20]. The pIC50 was 5.21 in [4]; 6.00 in [6]; 5.81 in series [9]; 6.07 in [12]; 5.47 in series [17]; 5.83 in series [18]. In addition, the pIC50 in [19] was 6.55. The result in [5], in series [7], in [8] and in [10] was Active. In addition, the selectivity ratio in series [11] is 63. Also, the Selectivity ratio in series [13] stood at 44.5. Also, the IC50 at 72 h in [14] was determined as 17.6 µM. For the same compound, the figures for the RBA in series [15] and in series [21] were 17.4% and 0.39%, respectively. In [16], the “tubulin polymerization inhibition (active/not active)” value is “Active”.
